Tests used:
Lewis lung cancer cells = experiment: Inhibitory activity of PACE4 to growth of metastasized cancerous focus in immunodeficient mice (lung weight, FIG. 9); format: in vivo, immunodeficient (Scid) mice
Description: As a system for estimating inhibitory effects to growth of metastasized cancerous focus of PACE4 per se, immunodeficient (Scid) mice were employed. Lung cancer cells (3LL; provided from Cell Resource Center for Biomedical Research, Institute of Development, Aging and Cancer, Tohoku University) were subcutaneously transplanted to Scid mice at the back. The animals were bred until a primary cancerous focus grows up to a predetermined size. So that severity of disease conditions is taken into consideration, mice were divided into two groups based on the size of a primary cancerous focus; one with a primary cancerous focus weighing not more than 1200 mg and the other with a primary cancerous focus weighing more than 1200 mg. The primary cancerous focus in each group was removed surgically. Each group was then further divided into three groups: a group receiving a high or low concentration of PACE4, and a control group. The sample was administered to mice intraperitoneally at 40 μg/mouse/day or 8 μg/mouse/day for 10 days. As a control, the same amount of physiological saline, as used for dissolving the lyophilized sample, was administered to mice.
After completion of test, mice were dissected and the lung was weighed and compared with the control group (Mann Whetney U test).
To immunodeficient mice of 6 weeks old were transplanted subcutaneously 10^6 Lewis lung cancer cells (LL/2) at the back. The animals were bred for 14 to 17 days and cancer (primary cancerous focus) formed at the back was surgically removed. Based on size of the primary cancerous focus formed, the animals were divided into two groups: one with the primary cancerous focus of not more than 1200 mg (200 mg to 1200 mg) and the other of more than 1200 mg (1201 mg to 2500 mg). Each of these two groups was further divided into three groups: ones that received a high or low dose of the enzyme of the present invention (PACE4) and control. […]

plasminogen = experiment: Fragmentation of plasminogen by purified PACE4 at pH 7.0 or pH 4.0 (FIG. 6); format: biochemical, human; conditions: reacted at neutral and acidic ranges of pH
Experimental: FIG. 6 depicts fragmentation patterns of plasminogen when reacted at neutral and acidic ranges of pH. […] In FIG. 6, the arrow A (→A) indicates a band corresponding to angiostatin from PC-3 according to Gately et al. whereas the arrow B (→B) indicates a band corresponding to a fragment comprising Kringles 1 to 4 produced by PACE4. […] The N-terminal amino acid residue of each fragment was analyzed to be F-74 for A, P-452 for B and A-700 for C, respectively.

plasmin = experiment: Remaining plasmin activity after cleavage by PACE4 (FIG. 8); format: biochemical; conditions: with passage of time of cleavage by PACE4
Description: Moreover, the enzyme of the present invention, producing angiostatin that comprises Kringles 1 to 4, also cleaves plasmin in the vicinity of its active center (between the 699th Phe and 700th Ala) to let plasmin be inactivated. This cleaving property of the enzyme is quite significant in view of efficient protection against cancer development. This is because angiostatin that inhibits growth of cancer is produced by fragmentation of plasminogen while the simultaneously produced active center of plasmin (plasmin serine protease domain) possibly further promotes cancer development. In addition, it is possible that vascularization and cancer invasion accelerated by the plasmin activity is further accelerated by removal of the Kringle domains. This is because such removal of the Kringle domains would attenuate the inhibitory activity of plasmin-inhibitory proteins occurring within the living body, including alpha 2 plasmin inhibitor (hereinafter referred to as “α2-PI”). Plasmin present in plasma is immediately inactivated by α2-PI circulating in the blood stream wherein the Kringle domains serve as a binding site between plasmin and α2-PI. Deprivation of the domains much reduces the activity of […]. […]

[1] = tested on: vascular endothelial cells; experiment: Inhibitory activity to growth of the vascular endothelial cells of plasma protein fragments produced by PACE4; format: cell-based; conditions: as described in Example 13
Description: (§1) The present inventors focused on fibronectin, a plasma component that is produced in great deal under cancerous conditions and is deeply involved in cell adhesion, and cleaved this with the enzyme of the present invention. […] The degraded products produced by the enzyme from fibronectin were separated with heparin Sepharose (Pharmacia). […] The obtained degraded products were estimated for their inhibitory activity to vascularization in the vascular endothelial cell system as described above.
Moreover, the present inventors also cleaved several kinds of fractions obtained from alcoholic fractionation of plasma proteins with the enzyme of the present invention. Alcohol was removed from alcoholic fractions by dialysis, followed by dialysis with citric phosphate buffer (pH 4.0). The resulting fractions were mixed with the enzyme at a ratio of the protein to the enzyme, 100:1, and the mixture was reacted at 38° C. overnight. […]
A test for inhibitory activity to growth of vascular endothelial cells was performed as described by Gately et al. using Human Umbilical vein endothelial (HUV) cells (HUVEC; Sanko Jun-yaku K.K.). […] The cells were peeled off the well with trypsin/EDTA solution and counted with Coulter counter (manufactured by Coulter). […]

[2] = tested on: BCE (Bovine capillary endothelial); experiment: Inhibition of BCE vascular growth by fibronectin degraded products; format: cell-based
Description: as §1

[3] = tested on: bovine aorta endothelial (BAE) cells; experiment: Test for inhibitory activity to growth of vascular endothelial cells, bovine aorta endothelial cells; format: cell-based; set-up: dose or concentration left out as unconfirmed; conditions: cell count after 72 hours; plasminogen fragments
Experimental: The activity of the plasminogen fragments was also estimated as described by O'Reilly et al. using bovine aorta endothelial (BAE) cells purchased from Sanko Jun-yaku K.K. BAE cells were cultured for maintenance on a 24-well plate (manufactured by Iwaki Glass K.K.) coated with gelatin in a DMEM basal medium containing 10% fetal calf serum (FCS), 3 ng/ml basic FGF (bFGF), 1% glutamine, 1% penicillin and 1% streptomycin at 5% CO2. BAE cells were plated on a 24-well gelatin-coated plate at 12,500 cells/well and cultured on the basal medium deprived of bFGF for 24 hours. […] contained 5% FCS but was deprived of bFGF and the plasminogen fragments were reacted with the cells at 37° C. for 20 minutes. A physiological saline was used as a negative control whereas angiostatin (Angiostatin, manufactured by Technoclone) was used as a positive control. After reaction, the basal medium containing 5% FCS and 2 ng/ml bFGF was added and the cells were cultured at 37° C. for additional 72 hours. The cells were peeled off the well with trypsin/EDTA solution and counted with Coulter counter (manufactured by Coulter).

PACE4: about 45 kDa aspartic enzyme purified from PC-3 culture supernatant, N-terminus LVRIPLHKFT, high homology to human cathepsin D precursor
inhibitory activity to growth of metastasized cancerous focus (lung weight) (Lewis lung cancer cells; primary cancerous focus more than 1200 mg (B), 40 or 8 μg/mouse/day i.p. for 10 days, 3LL cells): exhibited inhibitory activity to growth of metastasized cancerous focus in a concentration dependent manner
inhibitory activity to increase in lung weight (Lewis lung cancer cells; primary cancerous focus more than 1200 mg, 10 or 2 μg/animal i.p. for 10 days, LL/2 cells): observed in a dose dependent manner
lung weight, PACE4 administration versus control (Lewis lung cancer cells; primary cancerous focus not more than 1200 mg, 10 or 2 μg/animal i.p. for 10 days, LL/2 cells): no significant difference
pH range at which plasminogen is fragmented (plasminogen): only at an acidic range of pH
remaining plasmin activity (plasmin): plasmin activity disappears

fibronectin
growth of the vascular endothelial cells (FIG. 15) [1]: no such inhibitory activity
inhibitory ability to BCE vascular growth [2]: not found

angiostatin [reference compound]
inhibitory activity to growth of the vascular endothelial cells [3]: exhibited the inhibitory activity

Reference: patent US20070117180A1, “Enzyme producing plasma protein fragment having inhibitory activity to metastasis and growth of cancer and plasma protein fragment produced by fragmentation by said enzyme” (priority 1998, published 2007)
